Source: patent publication US20250040558A1, “ANTIMICROBIAL ACTIVITY OF CHLORITE-ENTRAINED POLYMERS” (CSP Technologies, Inc., priority 2021, published 2025)

Tests used:
S. Newport = assay: Reduction of S. Newport on sliced tomatoes; assay type: cell-based; conditions: 4° C.
Protocol: The skins of sliced tomatoes were spot inoculated with S. Newport. Sliced tomatoes were sealed in a controlled environment containing ClO2 or a regular plastic seal. The inoculated tomato skins were removed and processed on days 0, 1, 2, 5 and 7, after which S. Newport was evaluated by plating onto XLT-4 agar.
S. Newport was grown in TSB at 37° C. for 18-24 hr. Bacteria was resuspended in E-pure water. Serial dilutions of the inoculum were plated onto XLT-4 plates and incubated at 37° C. for 18-24 hours.
Tomatoes were first prepared by rinsing with 70% ethanol and thoroughly rinsing with sterile e-pure water. Tomatoes were sliced using a sterile tomato slicer (Prince Castle, Inc) and placed in pre-labelled trays. Five tomatoes were sliced per Aptar tray (4×10.3×3.4 inches). The tomatoes were spiked by inoculating two slices of each tomato with 10 μL of S. Newport. Tomatoes were incubated at room temperature for 1 hr. After drying, each tray was heat sealed with a tray sealing instrument (Maxwell Chase Technologies) at a temperature of 390° F. For the experimental group, the film was treated with 0.63 g of chlorine dioxide. Trays were stored at 4° C. until specimen collection. For each treatment of 1 hr, 24 hr, 48 hr, and 5 days, and 7 days a control and a treated tray were evaluated. Tomato skins of spiked slices were collected and tested for the presence of S. Newport. […]

Microsporidia = Microsporidia spore viability on tomato slices (RK-13 culture, Calcofluor White); assay type: cell-based; conditions: 4° C.
Protocol: Rabbit kidney (Rk-13) cell lines were maintained in flasks using 3.5% Fetal Bovine Serum (HIFBS) EMEM medium 1× antibiotics and antimycotics. Flasks were incubated at 37° C. and 5% CO2 until preparation of slides. 16-microwell slides were seeded with cells and grown in 10% (HIFBS) EMEM medium for 48 hours before inoculation with spores.
Fresh Microsporidia spores were propagated and harvested using RK-13 tissue cultures. The harvested medium containing cell debris and spores was filtered through a 5 μm filter, centrifuged at 2000 g for 15 minutes and counted using a hemocytometer.
Tomatoes were first prepared by rinsing with 70% ethanol and thoroughly rinsing with sterile e-pure water. Tomatoes were sliced using a sterile tomato slicer (Prince Castle, Inc) and placed in pre-labelled trays. Five tomatoes were sliced per Aptar tray (4×10.3×3.4 inches). The tomatoes were spiked by inoculating two slices of each tomato with 10 microliters of oocysts. Tomatoes were incubated at room temperature for 1 hr. […] For each treatment of 1 hr, 24 hr, 48 hr, and 5 days, and 7 days a control and a treated tray were evaluated. […]
Tomato slices spiked with Microsporidia were suspended in F12 media. […] Spore counts were taken using an epifluorescence microscope at 40× magnification and recorded.

[O][Cl+][O-] [chlorine dioxide]
inactivation of S. Newport (S. Newport; film with 0.63 g chlorine dioxide): effective in inactivation | inactivation of S. Newport (S. Newport; two days of treatment): complete inactivation | Microsporidia spore viability (Microsporidia; 24 hours of treatment): completely inactivated | Microsporidia spore viability (Microsporidia; after one hour of treatment): effectively reduced spore viability
